Measured values from US20240269304A1, “BCL-XL INHIBITOR ANTIBODY-DRUG CONJUGATES AND METHODS OF USE THEREOF” (Novartis AG, priority 2020, published 2024).
Like-named read-outs stand apart in the source and are kept apart here.

Key:
ALL-SIL cells = test: CellTiterGlo (CTG) cell viability, 72 h, ALL-SIL (Example 8); assay type: cell-based
Procedure: ALL-SIL cells were cultivated in RPMI supplemented with 20% heat inactivated fetal bovine serum, penicillin (100 IU/ml), streptomycin (100 μg/ml) and L-glutamine (2 mM). Cell lines were cultured at 37° C. in a humidified atmosphere containing 5% CO2. Cells were seeded in 96 well clear bottom plates (96 well clear-bottom, white, Corning reference 3903) and exposed to the payloads or ADCs for 72 h (serially diluted; 9 concentrations each, triplicates). Effects of payloads or ADCs on cell viability were assessed after 3 days of incubation at 37° C./5% CO2 by quantification of cellular ATP levels using CellTiterGlo at 75 μL reagent/well. All the conditions were tested in triplicates. Luminescence was quantified on a multipurpose plate reader. IC50s were calculated using standard four-parametric curve fitting. […] Each experiment was performed at least twice, with results being reproducible.

DND-41 cells = test: CellTiterGlo (CTG) cell viability, 72 h, DND-41 (Example 8); assay type: cell-based
Procedure: DND-41 cells were cultivated in RPMI supplemented with 10% heat inactivated fetal bovine serum, penicillin (100 IU/ml), streptomycin (100 μg/ml) and L-glutamine (2 mM). Cell lines were cultured at 37° C. in a humidified atmosphere containing 5% CO2. […] Effects of payloads or ADCs on cell viability were assessed after 3 days of incubation at 37° C./5% CO2 by quantification of cellular ATP levels using CellTiterGlo at 75 μL reagent/well. All the conditions were tested in triplicates. Luminescence was quantified on a multipurpose plate reader. IC50s were calculated using standard four-parametric curve fitting.

H1650 cells = test: CellTiterGlo (CTG) cell viability, 3D, 120 h, H1650 (Example 8); assay type: cell-based, human; conditions: Homo sapiens, NCI-H1650, H1650 3D
[1] = experiment n1, read-out: ALLSIL CTG 72 h IC50 nM n1
[2] = experiment n2, read-out: ALLSIL CTG 72 h IC50 nM n2
[3] = mean of n1 and n2, read-out: ALLSIL CTG 72 h IC50 nM Mean of n1 and n2
[4] = DND41, experiment n1, read-out: DND41 CTG 72 h IC50 nM n1
[5] = DND41, experiment n2, read-out: DND41 CTG 72 h IC50 nM n2
[6] = DND41, mean of n1 and n2, read-out: DND41 CTG 72 h IC50 nM Mean of n1 and n2
[7] = experiment n1, read-out: H1650 3D CTG IC50 n1
[8] = experiment n2, read-out: H1650 3D CTG IC50 n2
[9] = mean of n1 and n2, read-out: H1650 3D CTG IC50 Mean of n1 and n2

| Structure (SMILES) | IC50 (ALL-SIL cells; [1]) [nM] | IC50 (ALL-SIL cells; [2]) [nM] | IC50 (ALL-SIL cells; [3]) [nM] | IC50 (DND-41 cells; [4]) [nM] | IC50 (DND-41 cells; [5]) [nM] | IC50 (DND-41 cells; [6]) [nM] | IC50 (H1650 cells; [7]) [nM] | IC50 (H1650 cells; [8]) [nM] | IC50 (H1650 cells; [9]) [nM] | ALLSIL CTG 72 h IC50 nM n1 (ALL-SIL cells; experiment n1) |
| --- | --- | --- | --- | --- | --- | --- | --- | --- | --- | --- |
| Cc1c(Nc2nc3ccccc3s2)nnc2c1CCCN2c1ccc(-c2cnn(C[C@]34C[C@]5(C)C[C@](C)(C3)C[C@@](OCCNCCCCO)(C5)C4)c2C)c(C(=O)O)n1 [P22, 6-[3-(1,3-benzothiazol-2-ylamino)-4-methyl-6,7-dihydro-5H-pyrido[2,3-c]pyridazin-8-yl]-3-[1-[[3-[2-(4-hydroxybutylamino)ethoxy]-5,7-dimethyl-1-adamantyl]methyl]-5-methyl-pyrazol-4-yl]pyridine-2-carboxylic acid] | 0.26 | 0.5 | 0.38 | 0.45 | 0.26 | 0.36 | 0.77 | 0.79 | 0.78 |  |
| CNCC#Cc1ccc(OCCCc2sc(N(CCC(O)CO)c3cc(C)c(Nc4nc5ccccc5s4)nn3)nc2C(=O)O)c(F)c1 (stereo not drawn) [P44, 2-[[6-(1,3-Benzothiazol-2-ylamino)-5-methyl-pyridazin-3-yl]-(3,4-dihydroxybutyl)amino]-5-[3-[2-fluoro-4-[3-(methylamino)prop-1-ynyl]phenoxy]propyl]thiazole-4-carboxylic acid] | 4.64 | 3.14 | 3.89 | 36 | 33.6 | 34.8 |  |  |  |  |
| Cc1c(Nc2nc3ccccc3s2)nnc2c1CCCN2c1nc(C(=O)O)c(CCCOc2ccc(C#CCN3CCCC3)cc2F)s1 [P9, 2-[3-(1,3-Benzothiazol-2-ylamino)-4-methyl-6,7-dihydro-5H-pyrido[2,3-c]pyridazin-8-yl]-5-[3-[2-fluoro-4-(3-pyrrolidin-1-ylprop-1-ynyl)phenoxy]propyl]thiazole-4-carboxylic acid] | 3.31 | 1.1 | 2.21 | 21.8 | 19.3 | 20.6 | 0.7 | 1.4 | 1.05 |  |
| Cc1c(Nc2nc3ccccc3s2)nnc2c1CCCN2c1ccc(-c2cnn(CC34CC5(C)CC(C)(C3)CC(OCCN3CCN(C)CC3)(C5)C4)c2C)c(C(=O)O)n1 [P20, 6-[3-(1,3-benzothiazol-2-ylamino)-4-methyl-6,7-dihydro-5H-pyrido[2,3-c]pyridazin-8-yl]-3-[1-[[3,5-dimethyl-7-[2-(4-methylpiperazin-1-yl)ethoxy]-1-adamantyl]methyl]-5-methyl-pyrazol-4-yl]pyridine-2-carboxylic acid] | 0.02 | 0.08 | 0.05 | 0.38 | 0.24 | 0.31 | 0.36 | 0.5 | 0.43 |  |
| CNCC#Cc1ccc(OCCCc2sc(N(CCCC(O)CO)c3cc(C)c(Nc4nc5ccccc5s4)nn3)nc2C(=O)O)c(F)c1 (stereo not drawn) [P46, 2-[[6-(1,3-Benzothiazol-2-ylamino)-5-methyl-pyridazin-3-yl]-(4,5-dihydroxypentyl)amino]-5-[3-[2-fluoro-4-[3-(methylamino)prop-1-ynyl]phenoxy]propyl]thiazole-4-carboxylic acid] | 62.2 | 50 | 56.1 | 212 | 220 | 216 |  |  |  |  |
| Cc1c(Nc2nc3ccccc3s2)nnc2c1CCCN2c1ccc(-c2cnn(C[C@]34C[C@]5(C)C[C@](C)(C3)C[C@@](OCCNCC[C@H](O)CO)(C5)C4)c2C)c(C(=O)O)n1 [P19, 6-{3-[(1,3-benzothiazol-2-yl)amino]-4-methyl-6,7-dihydropyrido[2,3-c]pyridazin-8(5H)-yl}-3-(1-{[3-(2-{[(3S)-3,4-dihydroxybutyl]amino}ethoxy)-5,7-dimethyladamantan-1-yl]methyl}-5-methyl-1H-pyrazol-4-yl)pyridine-2-carboxylic acid] | 4.02 | 3.5 | 3.76 | 10.8 | 7.2 | 9 | 2.89 | 1.43 | 2.16 |  |
| Cc1c(Nc2nc3ccccc3s2)nnc2c1CCCN2c1nc(C(=O)O)c(CCCOc2ccc(C#CCN3CCN(C)CC3)cc2F)s1 [P10, 2-[3-(1,3-Benzothiazol-2-ylamino)-4-methyl-6,7-dihydro-5H-pyrido[2,3-c]pyridazin-8-yl]-5-[3-[2-fluoro-4-[3-(4-methylpiperazin-1-yl)prop-1-ynyl]phenoxy]propyl] thiazole-4-carboxylic acid] |  | 0.01 | 0.01 | 0.2 | 0.29 | 0.25 | 0.3 | 0.8 | 0.55 | <Cmin |
| Cc1c(Nc2nc3ccccc3s2)nnc2c1CCCN2c1nc(C(=O)O)c(CCCOc2ccc(C#CCN3CCNCC3)cc2F)s1 [P17, 2-[3-(1,3-Benzothiazol-2-ylamino)-4-methyl-6,7-dihydro-5H-pyrido[2,3-c]pyridazin-8-yl]-5-[3-[2-fluoro-4-(3-piperazin-1-ylprop-1-ynyl)phenoxy]propyl]thiazole-4-carboxylic acid] | 0.13 | 0.26 | 0.2 | 0.4 | 0.7 | 0.55 | 3.15 | 5.3 | 4.23 |  |
| Cc1c(Nc2nc3ccccc3s2)nnc2c1CCCN2c1nc(C(=O)O)c(CCCOc2ccc(C#CC(C)N3CCN(C)CC3)cc2F)s1 (stereo not drawn) [P8, 2-[3-(1,3-Benzothiazol-2-ylamino)-4-methyl-6,7-dihydro-5H-pyrido[2,3-c]pyridazin-8-yl]-5-[3-[2-fluoro-4-[3-(4-methylpiperazin-1-yl)but-1-ynyl]phenoxy]propyl]thiazole-4-carboxylic acid] | 0.02 | 0.03 | 0.02 | 0.69 | 0.41 | 0.55 | 0.7 | 1.8 | 1.25 |  |
| CNCC#Cc1ccc(OCCCc2sc(N(CCCO)c3cc(C)c(Nc4nc5ccccc5s4)nn3)nc2C(=O)O)c(F)c1 [P45, 2-[[6-(1,3-Benzothiazol-2-ylamino)-5-methyl-pyridazin-3-yl]-(3-hydroxypropyl)amino]-5-[3-[2-fluoro-4-[3-(methylamino)prop-1-ynyl]phenoxy]propyl]thiazole-4-carboxylic acid] | 3.11 | 4.01 | 3.56 | 17 | 16.8 | 16.9 |  |  |  |  |
| Cc1c(Nc2nc3ccccc3s2)nnc2c1CCCN2c1ccc(-c2cnn(C[C@]34C[C@]5(C)C[C@](C)(C3)C[C@@](OCCN3CCN(C(C)C)CC3)(C5)C4)c2C)c(C(=O)O)n1 [P32, 6-[3-(1,3-benzothiazol-2-ylamino)-4-methyl-6,7-dihydro-5H-pyrido[2,3-c]pyridazin-8-yl]-3-[1-[[3-[2-(4-isopropylpiperazin-1-yl)ethoxy]-5,7-dimethyl-1-adamantyl]methyl]-5-methyl-pyrazol-4-yl]pyridine-2-carboxylic acid] |  |  |  |  |  |  | 0.24 | 0.22 | 0.23 |  |
| Cc1c(Nc2nc3ccccc3s2)nnc2c1CCCN2c1ccc(-c2cnn(C[C@]34C[C@]5(C)C[C@](C)(C3)C[C@@](OCCNCC(CO)CO)(C5)C4)c2C)c(C(=O)O)n1 [P23, 6-[3-(1,3-benzothiazol-2-ylamino)-4-methyl-6,7-dihydro-5H-pyrido[2,3-c]pyridazin-8-yl]-3-[1-[[3-[2-[[3-hydroxy-2-(hydroxymethyl)propyl]amino]ethoxy]-5,7-dimethyl-1-adamantyl]methyl]-5-methyl-pyrazol-4-yl]pyridine-2-carboxylic acid] |  |  |  |  |  |  | 4 | 2.8 | 3.4 |  |
| COCCCN(C)CCCC12CC3(C)CC(C)(C1)CC(Cn1ncc(-c4ccc(N5CCCc6c5nnc(Nc5nc7ccccc7s5)c6C)nc4C(=O)O)c1C)(C3)C2 [P50, 6-[3-(1,3-benzothiazol-2-ylamino)-4-methyl-6,7-dihydro-5H-pyrido[2,3-c]pyridazin-8-yl]-3-[1-[[3-[3-[3-methoxypropyl(methyl)amino]propyl]-5,7-dimethyl-1-adamantyl]methyl]-5-methyl-pyrazol-4-yl]pyridine-2-carboxylic acid] |  |  |  |  |  |  | 0.55 | 0.21 | 0.38 |  |
